Consider twelve compounds from ChEMBL document CHEMBL1201862, “PubChem BioAssay data set” (2004).

Common to all, as to experiment: NCI tumour cell line growth inhibition, 48 h
The test system of test [1] is 786-0.
In test [2] the test system is CCRF-CEM.
The test system of test [3] is EKVX.
In test [4] the test system is HCT-15.
Test [5] relates to HL-60.
Test [6] relates to K562.
Test [7] deals with LOX IMVI.
For test [8], the system named is MOLT-4.
Test [9] concerns NCI-H460.
For test [10], the system named is PC-3.
In test [11] the test system is RXF 393.
In test [12] the test system is SK-MEL-28.
In test [13] the test system is SK-MEL-2.
Test [14] has as its system T47D.
Test [15] has as its system U-251.
For test [16], the system named is UO-31.
The test system of test [17] is HOP-62.
Test [18] concerns HOP-92.
In test [19] the test system is Hs-578T.
Test [20] concerns UACC-257.

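Following 48 hours of exposure in 96-well plates, responses at five concentrations were used to interpolate endpoints linearly. At the GI50, growth is halved.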 Activity calls are given as the source filed them. Cut-off read from the data, not from the text of the source: active = GI50 up to about 1.1 µM and inactive = higher.

With `O=C1O/C(=C\C=C\CO)C=C1/C=C/CO` [LISSOCLINOLIDE], the GI50 is 12.5 µM (inactive) in test [1]; 22.9 µM (inactive) in [2]; 15.3 µM (inactive) in test [3]; 12.3 µM in test [4]; 29.3 µM (inactive) in test [5]; 31.2 µM (inactive) in test [6]. Also, the GI50 in test [7] is 35.6 µM (inactive); in test [8] it was 50.6 µM (inactive); in [9], 32.1 µM (inactive); in test [10] it was 14.3 µM (inactive); in [11], 19 µM (inactive); in [12] it was 24.4 µM (inactive). Moreover, the GI50 in test [13] is 19.3 µM (inactive); in test [14], 20.7 µM (inactive); in test [15], 40.8 µM (inactive); in [16], 16.5 µM (inactive).

As to `CC(C)Oc1c(-c2c(OC(C)C)c(=O)c2=O)c(=O)c1=O`, the GI50 in test [1] was > 52.5 µM (inactive); in test [2], > 52 µM (inactive); in [3], > 48.5 µM (inactive); in test [4], > 60.5 µM; in test [5], 24.7 µM (inactive); in [17], > 36.1 µM (inactive). For the same compound, the GI50 in test [18] was > 100 µM (inactive); in [19] it was > 41.9 µM (inactive); in test [6], > 31.8 µM (inactive); in test [7], > 32.4 µM (inactive); in [8] it was > 36.6 µM (inactive); in test [9] it was > 60.7 µM (inactive). Moreover, the GI50 in test [11] was > 56.6 µM (inactive); in [12], > 68.2 µM (inactive); in test [13], > 56.9 µM (inactive); in [14] it was > 100 µM (inactive); in test [15] it was > 36.5 µM (inactive); in [20], > 56.4 µM (inactive). The GI50 in [16] is > 58.5 µM (inactive).

With `OC(Cc1ccccc1)(Cc1ccccc1)c1ccccc1`, the GI50 in [1] is 15.2 µM (inactive); in test [2], 20.7 µM (inactive); in test [3] it was 12.3 µM (inactive); in test [4] it was 20.5 µM; in test [5], 22 µM (inactive); in test [17] it was 19.7 µM (inactive). The GI50 in test [18] is 16.9 µM (inactive); in test [6] it was 26.8 µM (inactive); in test [7] it was 18.3 µM (inactive); in test [8], 24.6 µM (inactive); in [9] it was 19.4 µM (inactive); in test [10], 18.7 µM (inactive). Further, the GI50 in test [11] was 15.3 µM (inactive); in test [12], 21.9 µM (inactive); in test [13], 15.3 µM (inactive); in test [14], 33.7 µM (inactive); in test [15], 18.1 µM (inactive); in test [20] it was 18.5 µM (inactive). The GI50 in [16] was 17.5 µM (inactive).

`COc1ccc2c(c1)C1OCCNC1CC2` (stereo unspecified): the GI50 in [1] was > 100 µM (inactive); in test [2], > 100 µM (inactive); in test [3], > 100 µM (inactive); in test [4] it was > 100 µM; in test [5], > 100 µM (inactive); in [17], > 100 µM (inactive). The GI50 in test [19], in test [6], in test [7], in [8], in test [10] and in test [11] was > 100 µM (inactive) throughout. The GI50 in test [12], in test [13], in test [14], in test [15], in test [20] and in [16] was > 100 µM (inactive) each time.

Consider `O=C(Nc1cccc([N+](=O)[O-])c1)c1nnn(-c2cccc([N+](=O)[O-])c2)c1O`, for which the GI50 in [1], in test [2], in test [3], in test [5], in [17] and in test [19] was > 100 µM (inactive) each time. Moreover, the GI50 in test [6], in test [7], in [8], in test [10], in test [11] and in [12] was > 100 µM (inactive) each time. Moreover, the GI50 was > 100 µM (inactive) in [13]; > 100 µM (inactive) in test [14]; > 100 µM (inactive) in [15]; > 100 µM (inactive) in [20]; 67.5 µM (inactive) in test [16].

As to `O=C(N/N=C/c1ccc(O)cc1)NNCCO`, the GI50 is > 100 µM (inactive) in [1]; > 100 µM (inactive) in test [2]; > 100 µM in test [4]; > 100 µM (inactive) in test [5]; > 100 µM (inactive) in [17]; > 100 µM (inactive) in [19]. In addition, the GI50 in test [6], in test [8], in test [9], in test [10], in test [12] and in test [13] was > 100 µM (inactive) throughout. Besides, the GI50 in test [14], in test [15], in test [20] and in [16] was > 100 µM (inactive) throughout.

For `CC1=CC(=O)C(=C(C)C)CC1`, the GI50 was > 100 µM (inactive) in test [1]; 28.9 µM (inactive) in test [2]; > 100 µM (inactive) in test [3]; > 100 µM in [4]; 53.6 µM (inactive) in [5]; > 100 µM (inactive) in [17]. For the same compound, the GI50 in [19], in [6], in test [7], in [8], in test [9] and in test [10] was > 100 µM (inactive) each time. Also, the GI50 in [11] is 26.1 µM (inactive); in test [12] it was > 100 µM (inactive); in [14], > 100 µM (inactive); in test [15], > 100 µM (inactive); in [20], > 100 µM (inactive); in test [16], > 100 µM (inactive).

Consider `O=S1(=O)OCCCOS(=O)(=O)C1Br`, for which the GI50 in [1] is > 100 µM (inactive); in [3], > 100 µM (inactive); in test [4], > 100 µM; in test [17], > 100 µM (inactive); in [7], > 100 µM (inactive); in test [8], > 100 µM (inactive). Further, the GI50 in [10], in [11], in [12], in test [13], in [14] and in [15] was > 100 µM (inactive) in each case. Moreover, the GI50 in test [20] and in test [16] was > 100 µM (inactive) in each case.

Consider `COC(=O)C1=C(CCC[C@H](C)O[Si](C)(C)C(C)(C)C)NC(=O)N2[C@@H](CCO)CC[C@H]12`, for which the GI50 was 14.5 µM (inactive) in [1]; 12.4 µM (inactive) in test [3]; 15 µM in test [4]; 14.1 µM (inactive) in test [17]; 14.2 µM (inactive) in test [18]; 6.92 µM (inactive) in test [6]. In addition, the GI50 was 16.9 µM (inactive) in test [7]; 18.6 µM (inactive) in test [8]; 20.3 µM (inactive) in [9]; 12.4 µM (inactive) in [11]; 18.5 µM (inactive) in test [12]; 11.6 µM (inactive) in [14]. Moreover, the GI50 in [15] is 15.5 µM (inactive); in [20] it was 11.8 µM (inactive); in test [16] it was 15.6 µM (inactive).

In the case of `CN1CCC/C1=N\C#N`, the GI50 in test [1] is > 100 µM (inactive); in test [2], > 100 µM (inactive); in test [3], > 100 µM (inactive); in [4], > 100 µM; in test [5], > 100 µM (inactive); in test [17] it was > 100 µM (inactive). For the same compound, the GI50 in [19], in test [6], in test [7], in [8], in test [9] and in test [10] was > 100 µM (inactive) throughout. In addition, the GI50 in test [11], in test [12], in test [13], in [14], in test [15] and in test [16] was > 100 µM (inactive) in each case.

In the case of `CC(C)C1OC(=O)C=C1Sc1ccccc1` (stereo unspecified), the GI50 was > 100 µM (inactive) in [1]; > 100 µM (inactive) in test [2]; > 100 µM (inactive) in test [3]; > 100 µM in [4]; > 100 µM (inactive) in test [5]; > 100 µM (inactive) in test [17]. The GI50 in test [19], in test [6], in [7], in test [8], in [9] and in [10] was > 100 µM (inactive) each time. Moreover, the GI50 in test [11], in test [12], in test [13], in [14], in test [15] and in [20] was > 100 µM (inactive) throughout.

As for `NCCC1CN(C(=O)OCc2ccccc2)c2ccccc21` (stereo unspecified), the GI50 was 16.1 µM (inactive) in test [1]; 20.2 µM (inactive) in test [3]; 1.78 µM in test [4]; 23.1 µM (inactive) in [17]; 5.45 µM (inactive) in test [18]; 26.2 µM (inactive) in [19]. Also, the GI50 is 4.58 µM (inactive) in test [6]; 4.12 µM (inactive) in test [7]; 12 µM (inactive) in test [8]; 17.7 µM (inactive) in test [9]; 3.86 µM (inactive) in test [10]; 8.45 µM (inactive) in [11]. Besides, the GI50 in [12] is 18.6 µM (inactive); in [13] it was 18 µM (inactive); in [14] it was 3.13 µM (inactive); in [15] it was 14.3 µM (inactive); in [20], 17.3 µM (inactive); in test [16], 12.7 µM (inactive).
